Data as given in ChEMBL document CHEMBL5260839 (J Med Chem, 2019).
The source made the active and inactive calls. The rule behind the calls is not given here.

Key:
OCI-AML-5 [1] = test: Potency index, ratio of MI-1061 IC50 to test compound IC50 for inhibition of cell growth in human OCI-AML5 cells harbouring wild type p53 incubated for 4 days by lactate dehydrogenase based WST-8 assay; type: functional; conditions: time 4 day
MOLM-14 [2] = test: cells; conditions: Homo sapiens, MOLM-14, 96 h
RS4-11 [3] = test: Antitumor activity against human RS4-11 cells xenografted in mouse assessed as reduction in tumor growth at 10 mg/kg, iv administered three times a week; type: functional, organism-based; conditions: time 1.0 weeks
RS4-11 [4] = test: Inhibition of cell growth in human RS4-11 cells incubated for 4 days in the presence of lenalidomide by Lactate dehydrogenase based WST-8 assay; type: functional; conditions: time 4.0 day
[5] = Toxicity in mouse xenografted with human RS4-11 cells assessed as signs of toxicity at 50 mg/kg, administered once a week for 3 weeks; type: organism-based; conditions: in vivo, 504 h
SIG-M5 [6] = test: Potency index, ratio of MI-1061 IC50 to test compound IC50 for inhibition of cell growth in human SIG-M5 cells harbouring wild type p53 incubated for 4 days by lactate dehydrogenase based WST-8 assay; type: functional; conditions: time 4 day
RS4-11 [7] = test: Antitumor activity against human RS4-11 cells xenografted in mouse assessed as inhibition of tumor growth at 50 mg/kg, administered once a week for 3 weeks; type: functional, organism-based
MOLM-13 [8] = test: Potency index, ratio of MI-1061 IC50 to test compound IC50 for inhibition of cell growth in human MOLM-13 cells harbouring wild type p53 incubated for 4 days by lactate dehydrogenase based WST-8 assay; type: functional; conditions: time 4 day
RS4-11 [9] = test: Induction of apoptosis in human RS4-11 cells at 0.001 to 1 uM incubated for 24 hrs by Annexin-V/PI staining based flow cytometric analysis relative to MI-1061; type: functional; conditions: dose 0.001-1 µM
RS4-11 [10] = test: Antitumor activity against human RS4-11 cells xenografted in mouse assessed as reduction in tumor growth at 25 mg/kg, iv administered three times a week relative to control; type: functional; parameters: scale not given: the % may be the effect or the level left; conditions: time 1 weeks
SIG-M5 [11] = test: cells; conditions: Homo sapiens, SIG-M5, 96 h
[12] = Toxicity in mouse xenografted with human RS4-11 cells assessed as weight loss at 50 mg/kg, administered every other day for 3 weeks; type: organism-based; conditions: in vivo, 504 h
RS4-11 [13] = test: Antitumor activity against human […] cells xenografted in mouse assessed as tumor regression at 25 mg/kg, administered daily 5 days a week for 2 weeks; type: functional, organism-based
[14] = Toxicity in mouse xenografted with human RS4-11 cells assessed as signs of toxicity at 10 to 25 mg/kg, iv administered three times a week; type: organism-based; conditions: in vivo, 168 h, dose 10-25 mg/kg, time 1 weeks
ML-2 [15] = test: cells; conditions: Homo sapiens, ML-2, 96 h
RS4-11 [16] = test: Potency index, ratio of MI-1061 IC50 to test compound IC50 for inhibition of cell growth in human RS4-11 cells incubated for 4 days by lactate dehydrogenase based WST-8 assay; type: functional; conditions: time 4 day
[17] = Toxicity in mouse xenografted with human RS4-11 cells assessed as signs o toxicity at 50 mg/kg, administered every other day for 3 weeks; type: organism-based; conditions: in vivo, 504 h
[18] = Toxicity in mouse xenografted with human RS4-11 cells assessed as weight loss at 50 mg/kg, administered once a week for 3 weeks; type: organism-based; conditions: in vivo, 504 h
KG-1 = test: cells; conditions: Homo sapiens, KG-1, 96 h
[19] = target: T1, Protein cereblon/E3 ubiquitin-protein ligase Mdm2 (Homo sapiens) (UniProt Q00987+Q96SW2); test: PROTAC activity at CRBN/MDM2 in human MV4-11 cells assessed as upregulation of TP53 mRNA expression at 0.1 to 0.3 uM incubated for 6 hrs by qRT-PCR analysis; type: cell-based; conditions: dose 0.1-0.3 µM
MOLM-14 [20] = test: Potency index, ratio of MI-1061 IC50 to test compound IC50 for inhibition of cell growth in human MOLM-14 cells harbouring wild type p53 incubated for 4 days by lactate dehydrogenase based WST-8 assay; type: functional; conditions: time 4 day
[21] = target: T1, Protein cereblon/E3 ubiquitin-protein ligase Mdm2 (Homo sapiens); test: PROTAC activity at CRBN/MDM2 in human MV4-11 cells assessed as upregulation of p21 mRNA expression at 0.1 to 0.3 uM incubated for 6 hrs by qRT-PCR analysis; type: cell-based; conditions: dose 0.1-0.3 µM
[22] = target: T1, Protein cereblon/E3 ubiquitin-protein ligase Mdm2 (Homo sapiens); test: PROTAC activity at CRBN/MDM2 in human MV4-11 cells assessed as upregulation of PUMA mRNA expression at 0.1 to 0.3 uM incubated for 6 hrs by qRT-PCR analysis; type: cell-based; conditions: dose 0.1-0.3 µM
[23] = target: T1, Protein cereblon/E3 ubiquitin-protein ligase Mdm2 (Homo sapiens); test: PROTAC activity at CRBN/MDM2 in human RS4-11 cells harbouring wildtype p53 assessed as upregulation of TP53 mRNA expression at 0.03 to 0.1 uM incubated for 6 hrs by qRT-PCR analysis; type: cell-based; conditions: dose 0.03-0.1 µM
RS4-11 [24] = test: Induction of apoptosis in human RS4-11 cells incubated for 24 hrs by Annexin-V/PI staining based flow cytometric analysis; type: functional, cell-based
[25] = target: T1, Protein cereblon/E3 ubiquitin-protein ligase Mdm2 (Homo sapiens); test: PROTAC activity at CRBN/MDM2 in human MV4-11 cells assessed as upregulation of MDM2 mRNA expression at 0.1 to 0.3 uM incubated for 6 hrs by qRT-PCR analysis; type: cell-based; conditions: dose 0.1-0.3 µM
ML-2 [26] = test: Potency index, ratio of MI-1061 IC50 to test compound IC50 for inhibition of cell growth in human ML-2 cells harbouring wild type p53 incubated for 4 days by lactate dehydrogenase based WST-8 assay; type: functional; conditions: time 4 day
MV4-11 [27] = test: Potency index, ratio of MI-1061 IC50 to test compound IC50 for inhibition of cell growth in human MV4-11 cells incubated for 4 days by lactate dehydrogenase based WST-8 assay; type: functional; conditions: time 4 day
[28] = Toxicity in mouse xenografted with human RS4-11 cells assessed as weight loss at 10 to 25 mg/kg, iv administered three times a week; type: organism-based; conditions: in vivo, 168 h, dose 10-25 mg/kg, time 1 weeks
[29] = target: T1, Protein cereblon/E3 ubiquitin-protein ligase Mdm2 (Homo sapiens); test: PROTAC activity at CRBN/MDM2 in human MV4-11 cells assessed as upregulation of p53 mRNA expression at 0.1 to 0.3 uM incubated for 6 hrs by qRT-PCR analysis; type: cell-based; conditions: dose 0.1-0.3 µM
RS4-11 [30] = test: cells; conditions: Homo sapiens, RS4-11, 96 h
RS4-11 [31] = test: Antitumor activity against human RS4-11 cells xenografted in mouse assessed as tumor regression at 50 mg/kg, administered every other day for 3 weeks; type: functional, organism-based
[32] = Toxicity in mouse xenografted with human RS4-11 cells assessed as weight loss at 25 mg/kg, iv administered for one week; type: organism-based; conditions: in vivo, 168 h, time 1 weeks
RS4-11 [33] = test: Antitumor activity against human RS4-11 cells xenografted in mouse assessed as reduction in tumor growth at 25 mg/kg, iv administered for a week; type: functional, organism-based; conditions: time 1.0 weeks
MOLM-13 [34] = test: cells; conditions: Homo sapiens, MOLM-13, 96 h
MONO-MAC-6 = test: cells; conditions: Homo sapiens, MONO-MAC-6, 96 h
MV4-11 [35] = test: Inhibition of cell growth in human MV4-11 cells incubated for 4 days in the presence of lenalidomide by Lactate dehydrogenase based WST-8 assay; type: functional; conditions: time 4.0 day
[36] = Toxicity in mouse xenografted with human RS4-11 cells assessed as signs of toxicity at 25 mg/kg, iv administered for one week; type: organism-based; conditions: in vivo, 168 h, time 1 weeks
OCI-AML-5 [37] = test: cells; conditions: Homo sapiens, OCI-AML-5, 96 h

T1 sequence (Q00987 whole entry, looked up): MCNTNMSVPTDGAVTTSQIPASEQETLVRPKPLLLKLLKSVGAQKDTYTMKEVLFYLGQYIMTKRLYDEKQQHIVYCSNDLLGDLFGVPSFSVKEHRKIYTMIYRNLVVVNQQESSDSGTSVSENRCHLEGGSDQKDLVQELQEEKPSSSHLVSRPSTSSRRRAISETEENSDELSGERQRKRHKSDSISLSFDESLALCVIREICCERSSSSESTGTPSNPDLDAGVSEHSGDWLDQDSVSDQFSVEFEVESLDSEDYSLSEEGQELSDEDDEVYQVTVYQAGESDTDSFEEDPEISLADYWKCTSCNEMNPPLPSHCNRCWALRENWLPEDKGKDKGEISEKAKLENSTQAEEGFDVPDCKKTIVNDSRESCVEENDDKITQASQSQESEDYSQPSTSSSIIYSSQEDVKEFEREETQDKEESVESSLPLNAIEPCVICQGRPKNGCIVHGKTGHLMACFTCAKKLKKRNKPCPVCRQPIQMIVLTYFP
T1 sequence (Q96SW2 whole entry, looked up): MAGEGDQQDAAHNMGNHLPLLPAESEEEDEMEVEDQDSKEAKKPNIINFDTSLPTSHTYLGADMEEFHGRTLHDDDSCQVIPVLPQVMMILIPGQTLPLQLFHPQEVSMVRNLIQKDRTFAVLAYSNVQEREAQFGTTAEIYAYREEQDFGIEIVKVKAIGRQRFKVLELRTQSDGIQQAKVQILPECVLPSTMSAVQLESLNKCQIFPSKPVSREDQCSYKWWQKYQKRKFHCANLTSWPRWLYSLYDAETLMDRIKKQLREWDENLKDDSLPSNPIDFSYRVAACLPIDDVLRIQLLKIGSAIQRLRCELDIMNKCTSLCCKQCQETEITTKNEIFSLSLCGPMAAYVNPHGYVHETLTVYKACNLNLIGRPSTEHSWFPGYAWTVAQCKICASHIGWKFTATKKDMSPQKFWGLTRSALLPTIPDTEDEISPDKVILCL

O=C1CCC(N2Cc3c(C#CCCCNC(=O)c4ccc(NC(=O)[C@@H]5NC6(CCCCC6)[C@@]6(C(=O)Nc7cc(Cl)ccc76)[C@H]5c5cccc(Cl)c5F)cc4)cccc3C2=O)C(=O)N1 (some centres undefined)
Ratio IC50 (OCI-AML-5 [1]): >10 | IC50 (MOLM-14 [2]): 10.5 nM | Activity (RS4-11 [3]): Active | inhibition (RS4-11 [4]): inactive | Activity [5]: Non-Toxic | Ratio IC50 (SIG-M5 [6]): 5.3 | Activity (RS4-11 [7]): Active | Ratio IC50 (MOLM-13 [8]): >10 | fold change (FC) (RS4-11 [9]): >10 | Activity (RS4-11 [10]): 50% | IC50 (SIG-M5 [11]): 19.8 nM | Activity [12]: Non-Toxic | Activity (RS4-11 [13]): Active | Activity [14]: Non-Toxic | IC50 (ML-2 [15]): 4.4 nM | Ratio IC50 (RS4-11 [16]): >10 | Activity [17]: Non-Toxic | Activity [18]: Non-Toxic | IC50 (KG-1): > 10000 nM | Activity [19]: inactive | Ratio IC50 (MOLM-14 [20]): >10 | Activity [21]: Active | Activity [22]: Active | Activity [23]: inactive | Activity (RS4-11 [24]): Dose-Dependent Effect | Activity [25]: Active | Ratio IC50 (ML-2 [26]): >10 | Ratio IC50 (MV4-11 [27]): >10 | Activity [28]: Non-Toxic | Activity [29]: Active | IC50 (RS4-11 [30]): 1.5 nM | Activity (RS4-11 [31]): Active | Activity [32]: Non-Toxic | Activity (RS4-11 [33]): Active | IC50 (MOLM-13 [34]): 7.3 nM | IC50 (MONO-MAC-6): > 10000 nM | inhibition (MV4-11 [35]): Active | Activity [36]: Non-Toxic | IC50 (OCI-AML-5 [37]): 33.1 nM
